Test results from patent US11352421B2, “Treatment for adverse immune reaction to metal implant debris” (RUSH UNIVERSITY MEDICAL CENTER, priority 2018, dated 2022).
*: point of attachment. Cbz = O=C(OCc1ccccc1)*; CH2F = FC*

Legend:
[1] = system: human peripheral blood mononuclear cells; experiment: Metal-LTT of human lymphocytes (PBMCs): proliferation by 3H-thymidine incorporation with inflammasome or IL-17A inhibitors; format: cell-based; conditions: for lymphocyte proliferation in response to Ni in the presence of inhibitor / lymphocyte proliferation to Ni combined with inhibitor compared to media control: metal-reactive individuals' lymphocytes, 6 days; for lymphocyte proliferation in response to Ni in the presence of inhibitor: compared with Ni challenge without inhibitor; for lymphocyte proliferation to Ni combined with inhibitor compared to media control: versus media challenge; for lymphocyte proliferation, mean response to Ni: Ni alone
Procedure: De-identified human peripheral blood mononuclear cells were isolated from 30 mL of peripheral blood using density gradient separation (Ficoll-isopaque, Pharmacia, Piscataway, N.J.). Ficoll gradient separated mononuclear cells are generally comprised of 85-95% lymphocytes with 5-13% monocytes and <0.1% dendritic cells with limited contamination (i.e., <5% erythrocytes and <3% granulocytes). Collected PBMCs (white buffy coat) were washed in sterile 1×PBS and resuspended in RPMI-1640 medium with 10% autologous serum and cultured with either no metal (plain media) as a negative control, PHA as a positive control, or with soluble nickel (NiCl2) or cobalt (CoCl2) at 37° C. and […] for 6 days. At day 5 of cell culture, ^3H-thymidine was added. At day 6, T-cell proliferation was assessed via ^3H-thymidine incorporation that was determined using a beta scintillation counter.
(§1) Isolated human PBMCs were co-incubated in vitro with either MCC950, a NLRP3 inflammasome inhibitor (InvivoGen), Caspase-1 inhibitor (Caspase-1/ICE inhibitor Z-WEHD-FMK) or recombinant human IL-1Ra (R&D Systems. Inc., Minneapolis, Minn.) for metal-LTT assay or cytokine analysis according to manufacturer's protocol and working concentration. Caicedo et al., J. Biomed. Mater. Res. A 93(4):1312-1321 (2010).
(§2) Isolated human PBMCs were co-incubated in vitro with IL-17A monoclonal antibody (eBio64CAP17; ThermoFisher Scientific) for neutralization of IL-17A bioactivity for metal-lymphocyte transformation test assay or cytokine analysis according to the manufacturer's protocol and concentration.

IL-17A/F [2] = experiment: Sandwich ELISA for human IL-17A/F in supernatants of metal-challenged PBMCs; format: cell-based; conditions: metal-reactive individuals' lymphocytes; supernatants harvested on day 6
Procedure: as §1, §2
(§3) Sandwich ELISAs for mouse IL-17A/F and IFN-γ (R&D Systems Inc., Minneapolis, Minn.) were used to detect cytokine production in both non-sensitized and metal-sensitized female mouse spleens and isolated CD4+ T-cells that were harvested 48 h post paw re-challenge to metal allergen (day 14). Supernatants from control and metal-challenged murine cells were collected after 4 days. […] All samples for ELISA were performed in triplicate in 96 well plates and were stored at −80° C. until analysis, following manufacturer's protocol.

IFN-γ [3] = experiment: Sandwich ELISA for human IFN-γ in supernatants of metal-challenged PBMCs; format: cell-based; conditions: metal-reactive individuals' lymphocytes; supernatants harvested on day 6
Procedure: as §1, §2, §3

[4] = system: metal-sensitized C57BL/6 mice; experiment: In vivo delayed type hypersensitivity (DTH) to orthopedic implant metal(s): paw inflammation by digital caliber; conditions: day 14, no treatment, p<0.0001 vs vehicle group
Procedure: DTH responses comprise two phases: (1) sensitization and (2) effector phase. […] Ashrin et al., J. Immunol. 192(9):4025-4031 (2014); Sato et al., Clin. Exp. Allergy 37(5):743-751 (2007). […] (2) Effector phase to implant metal(s): Re-exposure to the metal allergen leads to DTH reaction during the effector phase. Therefore, on day 12, a 50 μL mixture of either sterile 1×PBS (control group) or NiCl2 (metal-sensitized group) with an equivalent volume of CFA was injected subcutaneously on top of the right paw. DTH was determined 48 h post re-exposure to metal allergen (day 14) by measuring changes in paw inflammation using a digital caliber (blinded assessment) and the induced difference was recorded. Each group consisted of 3-5 mice and experiments were performed at least three independent times.
Anti-mouse IL-1R1: A set of metal-sensitized C57BL/6 female mice received local paw administration on day 12 with 200 μg of anti-mouse IL-1R1 (for local in vivo blocking of IL-1R during the effector phase of metal-DTH responses) (clone JAMA-147; BioLegend, San Diego, Calif.) in concert with NiCl2 and CFA. Rogers et al., Proc. Natl. Acad. Sci. USA 89(3):1011-1015 (1992); Rogers et al., J. Immunol. 153(5):2093-2101 (1994). […]

IL-17A/F [5] = experiment: Sandwich ELISA for mouse IL-17A/F in supernatants of metal-challenged CD4+ T cells; format: cell-based; conditions: CD4+ T cells from metal-sensitized Caspase-1−/− mice
Procedure: (§4) In addition to determination of paw swelling after recall with NiCl2, proliferation in vitro of lymphocytes was measured. Spleens were obtained aseptically 48 h after challenge and splenic effector CD4+ T cells were isolated using negative selection kit following manufacturer's protocol (EasySep Mouse CD4+ T cell isolation kit; 2.5×10^5 cells/per well in 96 well flat bottom plates). Splenic CD4+ T cells were co-incubated with syngeneic mitomycin-C treated naïve splenic (2.5×10^5 cells/per well) antigen-presenting cells (APCs) with or without 0.0001 mM or 0.001 mM of soluble metal ions NiCl2 or CoCl2, and 0.01 mg/mL phytohemagglutinin (PHA) as a positive control, in RPMI 1640 media containing 10% fetal bovine serum (FBS; Hyclone Laboratories, Inc.) at 37° C. and […] for 4 days. Syngeneic naïve spleen APCs were incubated at 5×10^6 cells/mL with 25 μg/mL of mitomycin-C for 30 minutes to inactivate proliferation. At day 3 of cell culture, ^3H-thymidine was added. At day 4, T-cell proliferation was assessed via ^3H-thymidine incorporation that was determined using a beta scintillation counter.
(§5) Sandwich ELISAs for mouse IL-17A/F and IFN-γ (R&D Systems Inc., Minneapolis, Minn.) were used to detect cytokine production in both non-sensitized and metal-sensitized female mouse spleens and isolated CD4+ T-cells that were harvested 48 h post paw re-challenge to metal allergen (day 14). […]

IFN-γ [6] = experiment: Sandwich ELISA for mouse IFN-γ in supernatants of metal-challenged CD4+ T cells; format: cell-based; conditions: CD4+ T cells from metal-sensitized Caspase-1−/− mice
Procedure: as §4, §5

Row | Molecule | lymphocyte proliferation in response to Ni in the presence of inhibitor [1] | lymphocyte proliferation to Ni combined with inhibitor compared to media control [1] | IL-17A/F production to metal challenge in the presence of inhibitor (IL-17A/F [2]) | IFN-γ production to metal challenge in the presence of inhibitor (IFN-γ [3]) | mean paw inflammation upon challenge with Ni [4] [mm] | IL-17A/F mean secretion in response to Ni (IL-17A/F [5]) [pg/mL] | IFN-γ mean secretion in response to Ni (IFN-γ [6]) [pg/mL] | lymphocyte proliferation, mean response to Ni ([1]; other groups of individuals (FIGS. 9A, 9B, 10A)) | lymphocyte proliferation, mean response to Ni ([1]; subset of individuals tested with anti-IL-17A (n=11)) | relative effectiveness in mitigating lymphocyte metal reactivity (comparison among inhibitors) ([1]; comparison of MCC950, Caspase-1 inhibitor, IL-1Ra, anti-IL-17A)
1 | CC(C)(O)c1coc(S(=O)(=O)NC(=O)Nc2c3c(cc4c2CCC4)CCC3)c1 [MCC950, reference compound] | only a weak proliferative response | significant increases in cell proliferation | significantly suppressed | not affected | – | – | – | – | – | –
2 | [Cl][Ni][Cl] [Ni, Nickel (II) chloride] | – | – | – | – | 6.195 | 131.5 | 956.6 | approximately 4,000 cpm | 10,600 cpm | –
3 | Cbz-WEHD-CH2F [Caspase-1 inhibitor, reference compound] | significantly reduced lymphocyte reactivity | significant increases in cell proliferation | significantly suppressed | significantly suppressed both IL-17 and IFN-γ production | – | – | – | – | – | –
4 | IL-1Ra: recombinant human IL-1Ra (R&D Systems), IL-1 receptor antagonist; b178 equates IL-1Ra with ANAKINRA | significantly reduced lymphocyte proliferative responses | non-significantly different compared to media challenge | significantly suppressed | – | – | – | – | – | – | most effective inflammasome based inhibitor
